We go through one molecule from patent publication US12565485B2, “Solid forms of 1-((S)-4-((R)-7-(6-amino-4-methyl-3-(trifluoromethyl)pyridin-2-yl)-6-chloro-8-fluoro-2-(((s)-1-methylpyrrolidin-2-yl)methoxy)quinazolin-4-yl)-3-methylpiperazin-1-yl)prop-2-en-1-one” (Genentech, Inc., priority 2022, dated 2026).

The data set in a line: Moisture absorption observed during XRPD test. The class given is physicochemical. The protocol: Compound E Form A was obtained from acetone system. Limited solids were observed after stirring at 5° C. […] The suspension was transferred to −20° C., but limited solids were still observed. Anti-solvent (n-heptane) was added and the sample was transferred to 5° C. However, gel was obtained.

On to `C=CC(=O)N1CCN(c2nc(OC[C@@H]3CCCN3C)nc3c(F)c(-c4nc(N)cc(C)c4C(F)(F)F)c(Cl)cc23)[C@@H](C)C1.CS(=O)(=O)O` (atropisomer, axis not shown) [Compound E Form A], for which the “Moisture behaviour of the sample during XRPD test” value is “tended to absorb moisture and turn to liquid”.
